Test system: primary hippocampal neurons
Experiment: qPCR mRNA expression in primary hippocampal neurons treated with ketamine or HNKet
Type: cell-based, mouse
Settings: 10 μM
Experimental: Primary hippocampal neurons were generated from E16.5 embryos using a standard primary neuron cell culture protocol previously described [K. G. Schraut et al., Eur JNeurosci (2021) 53: 390-401]. Briefly, dissected hippocampi were harvested in ice-cold dissection medium (HBSS, 7 mM HEPES, 2 mM L-glutamine, 500 U/ml penicillin-streptomycin, all Thermo Fisher Scientific). The tissue was incubated for 10 minutes in 0.25% Trypsin-EDTA with 8 mM HEPES (Thermo Fisher Scientific) in a water bath at 37° C. Tissue was washed three times with serum medium (DMEM, 10% FBS, Thermo Fisher Scientific). The cells were dissociated by titration using glass Pasteur pipets 10 in serum medium and filtered with a 70 tm cell strainer (Corning). Cell culture plates were coated overnight with 0.05 mg/ml poly-D-lysine mol wt 70,000-150,000 (Sigma Aldrich) in 0.15 M borate buffer (pH=8.5). Cells were seeded in 24-well plates at a density of 5×10^4 cells in 1 ml growth medium (Neurobasal A medium, 1 x B27 supplement, 0.25×GlutaMAX, all Thermo Fisher Scientific) per well. All cultures were kept in a humidified incubator at 37° C. and 5% CO2. Growth medium was renewed after 7 days of culture. For all experiments, mature twenty-one-day old primary neuronal cultures were used.
Primary hippocampal neurons were generated from E16.5 embryos and cultured for 21 days, as described above (see Primary Cell Culture). For experiment 1 (FIGS. 3A-K), neurons were treated with a saline solution, (R,S)-ketamine (10 μM) (Ketaset, Zoetis, Germany) or (2R,6R)-HNKet (10 μM) (Sigma, Cat #SML1873-25MG) for 0, 2, 12, 24 or 48 hours and compared to untreated controls. For experiment 2 (FIGS. 6A-D), neurons were stimulated with either a saline solution, (2R,6R)-HNKet (10 μM), or a combination of (2R,6R)-HNKet (10 μM) plus nifedipine (10 μM) (Tocris Bioscience, Cat #1075), W-7 hydrochloride (10 μM) (Tocris, Cat #0369), or cyclosporine-A (1 μM) (Tocris, Cat #1101) for 30 minutes, 1, 2, or 6 hours, and compared to untreated controls.
Ketamine treatment regulates Kcnq2 in primary hippocampal neurons To corroborate the previous findings in glutamatergic neurons, it was next examined whether treatment of primary hippocampal neurons with either (R,S)-ketamine or its active metabolite, (2R,6R)-hydroxynorketamine (HNKet), could modify the mRNA expression of the 8 genes tested earlier in glutamatergic neurons. Mouse primary hippocampal neurons are mostly made up of glutamatergic neurons and therefore make a very good model system to further validate the previous in vivo findings. […]

SMILES: CNC1(c2ccccc2Cl)CCCCC1=O (racemic) [ketamine, (R,S)-ketamine]
- mRNA expression of Hspa8, Snap25, Hsp90ab1, Ndufa4, Ilf2, E2f1 and Kcnq2 (2, 12, 24 or 48 hours): significant changes
- Kcnq2 mRNA expression (2, 12, 24 or 48 hours vs untreated and saline controls): significant upregulation at all time points tested

— patent publication US20240065988A1, “COMBINED USE OF KETAMINE AND RETIGABINE (EZOGABINE) FOR THE TREATMENT OF PSYCHIATRIC DISORDERS” (Yeda Research and Development Co. Ltd., priority 2021, published 2024)
